Laboratory results as given in ChEMBL document CHEMBL5661943, “ASAP - In vitro antiviral effect” (2024).
Values joined by “and” are separate entries in the source; they are usually repeats but may differ in a detail not shown here. Equal entries are not always repeated.

How the values were obtained:
[1] = tested on: Zika virus; assay: EC50 is reported via analysis of immunofluorescence staining. The assay has been performed by Icahn School of Medicine at Mount Sinai.; assay type: functional, organism-based, Chlorocebus sabaeus, VeroE6/TMPRSS2; details: for EC90: P-gp concentration 2 uM, P-gp inhibitor Elacidar
[2] = tested on: Zika virus; assay: Functional CPE-based assay to measure dose dependent changes in antiviral-drug inhibitory efficacy against Zika virus MR766 in Vero E6 miRFP670 cells (cotreated with P-gp inhibitor, CP100356). Cells are treated with antiviral candidates that are serially diluted. EC50 is reported via analysis of MTS assay as a readout of CPE. The assay has been performed by KU Leuven.; assay type: organism-based, Chlorocebus sabaeus, Vero C1008; details: for EC90: P-gp concentration 500 nM, P-gp inhibitor CP100356
[3] = tested on: dengue virus type 2; assay: Functional immunofluorescence assay to measure dose dependent changes in antiviral-drug inhibitory efficacy against Dengue virus type 2 Thailand/16681/84 in Vero E6/TMPRSS2 cells (cotreated with P-gp inhibitor, Elacridar). Cells are treated with antiviral candidates that are serially diluted, following infection, cells are fixed. EC50 is reported via analysis of immunofluorescence staining. The assay has been performed by Icahn School of Medicine at Mount Sinai.; assay type: organism-based, Chlorocebus sabaeus, VeroE6/TMPRSS2; details: Dengue virus
[4] = tested on: dengue virus type 2; assay: Functional assay to measure dose dependent changes in antiviral-drug inhibitory efficacy against Dengue virus type 2 New Guinea C in Vero E6 miRFP670 cells (cotreated with P-gp inhibitor, CP100356). Cells are treated with antiviral candidates that are serially diluted, following infection, cells are fixed. EC50 is reported via analysis of fluorescence intensity using high-content imager. The …; assay type: organism-based, Chlorocebus sabaeus, Vero C1008; details: for EC90: P-gp concentration 500 nM, P-gp inhibitor CP100356

O=C(NCC(F)F)[C@H](Nc1ccc2c(c1)CNC2)c1cc(Cl)cc(C2CC2)c1
EC90 ([1]; Baseline response 0 %, Hill slope -0.396, Maximum measured 99.851 %, Maximum response 100 %, Minimum measured 40.832 %, R squared 0.557): > 5.56 µM
EC90 ([1]; Baseline response 0 %, Hill slope -0.815, Maximum measured 101.881 %, Maximum response 50 %, Minimum measured 25.102 %, R squared 0.285): > 5.56 µM
EC90 ([1]; Zika virus, VeroE6/TMPRSS2, Maximum measured 91.336 %, Minimum measured 34.975 %): > 1.85 µM
EC90 ([1]; Zika virus, VeroE6/TMPRSS2, Baseline response 0 %, Hill slope -0.205, Maximum measured 120.59 %, Maximum response 100 %, Minimum measured 43.549 %, R squared 0.084): > 5.56 µM
EC90 ([2]; Baseline response 0 %, EC90 CI (lower) 0 uM, EC90 CI (upper) 0 uM, Hill slope 19.422, Maximum measured 104.146 %, Maximum response 100 %, Minimum measured 1.001 %, R squared 0.972): 3.54 µM
EC90 ([2]; Baseline response 0 %, EC90 CI (lower) 1.312 uM, EC90 CI (upper) 1.931 uM, Hill slope 6.18, Maximum measured 105.591 %, Maximum response 100 %, Minimum measured 3.511 %, R squared 0.974): 1.59 µM
EC90 ([2]; Baseline response 0 %, EC90 CI (lower) 26.105 uM, EC90 CI (upper) 61.789 uM, Hill slope 1.533, Maximum measured 103.939 %, Maximum response 100 %, Minimum measured 1.936 %, R squared 0.959): 40.2 µM
EC50 ([2]; vero c1008): 9.58 µM and 3.16 µM and 1.11 µM
EC50 ([3]; VeroE6/TMPRSS2): > 50 µM
EC90 ([3]; VeroE6/TMPRSS2, Maximum measured 212.671 %, Minimum measured 62.173 %, P-gp concentration 2 uM, P-gp inhibitor Elacidar): > 50 µM
EC50 ([4]; Dengue virus, Vero C1008): > 50 µM
EC90 ([4]; Dengue virus, Vero C1008, Maximum measured 140.556 %, Minimum measured 63.358 %): > 50 µM
EC90 ([4]; Dengue virus, Vero C1008, Maximum measured 143.73 %, Minimum measured 67.897 %): > 25 µM
EC90 ([4]; Dengue virus, Vero C1008, Baseline response 0 %, Hill slope -0.993, Maximum measured 109.944 %, Maximum response 100 %, Minimum measured 57.337 %, R squared 0.512): > 50 µM
EC50 ([4]; vero c1008): > 25 µM

Cc1cc(C(=O)Nc2ccc3c(c2)CNC3)c2cn[nH]c2c1
EC90 ([1]; Baseline response 0 %, Hill slope -2.011, Maximum measured 89.225 %, Maximum response 60 %, Minimum measured 14.739 %, R squared 0.55): > 50 µM
EC90 ([1]; Zika virus, VeroE6/TMPRSS2, Baseline response 0 %, Hill slope -0.435, Maximum measured 146.607 %, Maximum response 100 %, Minimum measured 37.409 %, R squared 0.47): > 50 µM
EC50 ([1]; veroe6/tmprss2): 4.92 µM and 30 µM
EC50 ([2]; Zika virus, Vero C1008): 7.79 µM
EC90 ([2]; Zika virus, Vero C1008, Baseline response 0 %, EC90 CI (lower) 4.895 uM, EC90 CI (upper) 50.446 uM, Hill slope 3.132, Maximum measured 172.887 %, Maximum response 100 %, Minimum measured 3.006 %, R squared 0.777): 15.7 µM
EC50 ([3]; VeroE6/TMPRSS2): > 16.7 µM
EC90 ([3]; VeroE6/TMPRSS2, Baseline response 0 %, Hill slope -0.131, Maximum measured 111.871 %, Maximum response 100 %, Minimum measured 74.867 %, P-gp concentration 2 uM, R squared 0.056, P-gp inhibitor Elacidar): > 16.7 µM
EC50 ([4]; Dengue virus, Vero C1008): > 50 µM
EC90 ([4]; Dengue virus, Vero C1008, Maximum measured 131.325 %, Minimum measured 92.066 %): > 50 µM

O=C(Nc1ccc2c(c1)CCNCC2)c1cc(Cl)cc2[nH]ncc12
EC50 ([1]; Zika virus, VeroE6/TMPRSS2): > 50 µM
EC90 ([1]; Zika virus, VeroE6/TMPRSS2, Maximum measured 112.155 %, Minimum measured 46.888 %): > 50 µM
EC50 ([2]; Zika virus, Vero C1008): > 50 µM
EC90 ([2]; Zika virus, Vero C1008, Maximum measured -0.637 %, Minimum measured -2.713 %): > 50 µM
EC50 ([3]; VeroE6/TMPRSS2): > 50 µM
EC90 ([3]; VeroE6/TMPRSS2): > 50 µM
EC50 ([4]; Dengue virus, Vero C1008): > 25 µM
EC90 ([4]; Dengue virus, Vero C1008, Baseline response 0 %, Hill slope -0.681, Maximum measured 107.454 %, Maximum response 100 %, Minimum measured 77.093 %, R squared 0.152): > 25 µM

Cc1ccc(NC(=O)c2cc(Cl)cc3[nH]ncc23)cc1CN
EC50 ([1]; Zika virus, VeroE6/TMPRSS2): 23.7 µM
EC90 ([1]; Zika virus, VeroE6/TMPRSS2, Baseline response 0 %, Hill slope -0.507, Maximum measured 128.919 %, Maximum response 100 %, Minimum measured 43.47 %, R squared 0.43): > 50 µM
EC50 ([2]; Zika virus, Vero C1008): > 50 µM
EC90 ([2]; Zika virus, Vero C1008, Maximum measured -0.519 %, Minimum measured -6.318 %): > 50 µM
EC50 ([3]; VeroE6/TMPRSS2): > 50 µM
EC90 ([3]; VeroE6/TMPRSS2, Baseline response 0 %, Hill slope -2.664, Maximum measured 202.734 %, Maximum response 169.492 %, Minimum measured 72.11 %, P-gp concentration 2 uM, R squared 0.716, P-gp inhibitor Elacidar): > 50 µM
EC50 ([4]; Dengue virus, Vero C1008): 29.2 µM
EC90 ([4]; Dengue virus, Vero C1008, Baseline response 0 %, Hill slope -1.708, Maximum measured 106.876 %, Maximum response 100 %, Minimum measured 12.632 %, R squared 0.516): > 50 µM

CC(=O)Nc1cc(Br)cc(C(=O)Nc2ccc3c(c2)CNC3)c1
EC90 ([1]; Baseline response 0 %, Hill slope -0.518, Maximum measured 97.567 %, Maximum response 50 %, Minimum measured 37.703 %, R squared 0.045): > 50 µM
EC50 ([1]; Zika virus, VeroE6/TMPRSS2): > 50 µM
EC90 ([1]; Zika virus, VeroE6/TMPRSS2, Baseline response 0 %, Hill slope -0.196, Maximum measured 132.114 %, Maximum response 100 %, Minimum measured 61.615 %, R squared 0.024): > 50 µM
EC50 ([2]; Zika virus, Vero C1008): > 50 µM
EC90 ([2]; Zika virus, Vero C1008, Baseline response 0 %, Hill slope -0.049, Maximum measured 5.994 %, Maximum response 100 %, Minimum measured 2.41 %, R squared 0.015): > 50 µM
EC50 ([3]; VeroE6/TMPRSS2): > 50 µM
EC90 ([3]; VeroE6/TMPRSS2, Maximum measured 175.614 %, Minimum measured 132.324 %, P-gp concentration 2 uM, P-gp inhibitor Elacidar): > 50 µM
EC50 ([4]; Dengue virus, Vero C1008): > 50 µM
EC90 ([4]; Dengue virus, Vero C1008, Baseline response 0 %, Hill slope 0.424, Maximum measured 105.264 %, Maximum response 100 %, Minimum measured 74.207 %, R squared 0.146): > 50 µM

N#Cc1cc(C(=O)Nc2ccc3c(c2)CNC3)cc(C(F)(F)F)c1
EC50 ([1]; Zika virus, VeroE6/TMPRSS2): > 50 µM
EC90 ([1]; Zika virus, VeroE6/TMPRSS2, Maximum measured 132.778 %, Minimum measured 43.807 %): > 50 µM
EC50 ([2]; Zika virus, Vero C1008): > 50 µM
EC90 ([2]; Zika virus, Vero C1008, Baseline response 0 %, Hill slope 0.826, Maximum measured 10.885 %, Maximum response 100 %, Minimum measured 0.969 %, R squared 0.373): > 50 µM
EC50 ([3]; VeroE6/TMPRSS2): 23.5 µM
EC90 ([3]; VeroE6/TMPRSS2, Baseline response 0 %, Hill slope -2.224, Maximum measured 139.741 %, Maximum response 100 %, Minimum measured 16.816 %, P-gp concentration 2 uM, R squared 0.66, P-gp inhibitor Elacidar): > 50 µM
EC50 ([4]; Dengue virus, Vero C1008): > 50 µM
EC90 ([4]; Dengue virus, Vero C1008, Baseline response 0 %, Hill slope 0.474, Maximum measured 101.337 %, Maximum response 100 %, Minimum measured 73.182 %, R squared 0.159): > 50 µM

O=C(Nc1cc(Cl)cc(C(=O)Nc2ccc(-n3nn[nH]c3=O)cc2)c1)OCc1ccccc1
EC50 ([1]; Zika virus, VeroE6/TMPRSS2): 49.1 µM
EC90 ([1]; Zika virus, VeroE6/TMPRSS2, Baseline response 0 %, Hill slope -16.502, Maximum measured 156.276 %, Maximum response 100 %, Minimum measured 42.402 %, R squared 0.326): > 50 µM
EC50 ([2]; Zika virus, Vero C1008): > 50 µM
EC90 ([2]; Zika virus, Vero C1008, Baseline response 0 %, Hill slope 1.628, Maximum measured 15.335 %, Maximum response 100 %, Minimum measured -0.05 %, R squared 0.878): > 50 µM
EC50 ([3]; VeroE6/TMPRSS2): 11.4 µM
EC90 ([3]; VeroE6/TMPRSS2, Baseline response 0 %, Hill slope -0.45, Maximum measured 123.141 %, Maximum response 100 %, Minimum measured 41.064 %, P-gp concentration 2 uM, R squared 0.456, P-gp inhibitor Elacidar): > 16.7 µM
EC90 ([4]; Baseline response 0 %, EC90 CI (lower) 3.172 uM, EC90 CI (upper) 10.269 uM, Hill slope -8.96, Maximum measured 107.351 %, Maximum response 100 %, Minimum measured 0.837 %, R squared 0.832): 9.32 µM
EC90 ([4]; Baseline response 0 %, Hill slope -35.644, Maximum measured 130.696 %, Maximum response 100 %, Minimum measured 29.339 %, R squared 0.657): > 50 µM
EC50 ([4]; vero c1008): 7.29 µM and 48.8 µM

CCc1cc(C(=O)Nc2cccc(-c3nnn[nH]3)c2)sc1-c1ccc(Cl)cc1
EC50 ([1]; Zika virus, VeroE6/TMPRSS2): > 16.7 µM
EC90 ([1]; Zika virus, VeroE6/TMPRSS2, Maximum measured 109.494 %, Minimum measured 75.609 %): > 16.7 µM
EC50 ([2]; Zika virus, Vero C1008): > 50 µM
EC90 ([2]; Zika virus, Vero C1008, Baseline response 0 %, Hill slope -0.614, Maximum measured 5.848 %, Maximum response 100 %, Minimum measured -4.216 %, R squared 0.418): > 50 µM
EC50 ([3]; VeroE6/TMPRSS2): > 16.7 µM
EC90 ([3]; VeroE6/TMPRSS2, Baseline response 0 %, Hill slope -0.101, Maximum measured 96.419 %, Maximum response 100 %, Minimum measured 50.045 %, P-gp concentration 2 uM, R squared 0.073, P-gp inhibitor Elacidar): > 16.7 µM
EC50 ([4]; Dengue virus, Vero C1008): > 25 µM
EC90 ([4]; Dengue virus, Vero C1008, Baseline response 0 %, Hill slope 0.831, Maximum measured 164.159 %, Maximum response 100 %, Minimum measured 71.563 %, R squared 0.225): > 25 µM
